Source: patent publication US12312359B2 (Vitae Pharmaceuticals, LLC, priority 2016, dated 2025)

Columns and labels:
[1] = target: T1, biotinylated wild-type menin and MLL-AF9 fusion protein (menin/MLL binding) (Homo sapiens, UniProt O00255); experiment: Assay 1: menin/MLL binding AlphaLISA assay, wild-type menin; conditions: Table 30; column head does not say wild-type or mutated menin
T1 construct: made in house; host or cells: menin: E. coli; MLL-AF9-FLAG: HEK293 cells, used as cleared lysate
T1 sequence (O00255 1-610): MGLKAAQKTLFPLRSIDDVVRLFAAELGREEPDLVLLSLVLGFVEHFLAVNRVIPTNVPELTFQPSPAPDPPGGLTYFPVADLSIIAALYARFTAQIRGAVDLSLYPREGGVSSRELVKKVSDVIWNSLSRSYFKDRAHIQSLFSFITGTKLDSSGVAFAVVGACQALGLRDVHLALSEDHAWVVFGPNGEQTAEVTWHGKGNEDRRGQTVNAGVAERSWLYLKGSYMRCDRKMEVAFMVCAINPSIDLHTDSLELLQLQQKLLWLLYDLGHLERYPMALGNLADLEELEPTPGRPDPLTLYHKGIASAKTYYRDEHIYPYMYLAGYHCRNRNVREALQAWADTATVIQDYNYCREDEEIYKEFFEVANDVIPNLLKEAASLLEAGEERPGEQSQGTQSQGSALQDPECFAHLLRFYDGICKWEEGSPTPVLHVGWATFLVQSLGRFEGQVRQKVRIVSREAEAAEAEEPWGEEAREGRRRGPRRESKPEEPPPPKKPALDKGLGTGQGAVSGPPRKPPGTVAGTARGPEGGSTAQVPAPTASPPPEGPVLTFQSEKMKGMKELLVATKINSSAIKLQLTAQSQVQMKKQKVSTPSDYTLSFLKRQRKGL
Procedure, shortened: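 Compound was preincubated 30 min at room temperature with biotinylated menin (5 nM) and MLL-AF9-FLAG lysate from HEK293 cells, pH 7.4 buffer with 5% DMSO and DTT. Bead-based Alpha signal after 60 min with streptavidin donor and anti-FLAG acceptor beads; four-parameter logistic fit gave IC50.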

[2] = tested on: human acute monocytic leukemia cell line MV-4-11; experiment: Assay 2: cell proliferation assay (ATP quantitation, CellTiter-Glo), MV-4-11; format: cell-based; conditions: MV-4-11 cells
Procedure, shortened: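 Read-out is CellTiter-Glo luminescence quantifying ATP. Compound exposure lasted 72 h at 37° C., 5% CO2, with 1.67×10^4 MV-4-11 cells per well in 10% FBS medium, alongside HL-60 toxicity-control cells.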

In the case of `CC(C)c1ncncc1-c1cc(F)ccc1Oc1cncnc1N1CC2(CC(NCc3ccc(C#N)cc3)C2)C1` [Example 152, 4-(((2-(5-(4-fluoro-2-(4-isopropylpyrimidin-5-yl)phenoxy)pyrimidin-4-yl)-2-azaspiro[3.3]heptan-6-yl)amino)methyl) benzonitrile], the IC50 [1] is reported as < 0.1 µM and the EC50 ([2]; Homo sapiens, MV4-11, 72 h) is reported as < 0.1 µM.
For `NC(=O)c1ccc(-c2cc(F)ccc2Oc2cncnc2N2CCC3(CCN(Cc4ccc5[nH]c(=O)[nH]c5c4)C3)C2)c(C2CC2)c1` (stereo not drawn) [Example 43, 2-cyclopropyl-5′-fluoro-2′-((4-(7-((2-oxo-2,3-dihydro-1H-benzo[d]imidazol-5-yl)methyl)-2,7-diazaspiro[4.4]nonan-2-yl)pyrimidin-5-yl)oxy)-[1,1′-biphenyl]-4-carboxamide], the IC50 [1] was < 0.1 µM and the EC50 ([2]; Homo sapiens, MV4-11, 72 h) was < 0.1 µM.
In the case of `CCN(C(=O)c1cc(F)ccc1Oc1cncnc1N1CCC2(CCN(Cc3ccc4[nH]c(=O)[nH]c4c3)C2)C1)C(C)C` (single isomer, unassigned) [Example 2B, N-ethyl-5-fluoro-N-isopropyl-2-((4-(7-((2-oxo-2,3-dihydro-1H-benzo[d]imidazol-5-yl)methyl)-2,7-diazaspiro[4.4]nonan-2-yl)pyrimidin-5-yl)oxy)benzamide], the IC50 [1] is reported as < 0.1 µM and the EC50 ([2]; Homo sapiens, MV4-11, 72 h) is reported as < 0.1 µM.
For `CCC(O)(CC)c1cc(F)ccc1Oc1cncnc1N1CCC2(CCN(Cc3ccc4[nH]c(=O)[nH]c4c3)C2)C1` (stereo not drawn) [Example 34, 5-((7-(5-(4-fluoro-2-(3-hydroxypentan-3-yl)phenoxy)pyrimidin-4-yl)-2,7-diazaspiro[4.4]nonan-2-yl)methyl)-1,3-dihydro-2H-benzo[d]imidazol-2-one], the IC50 [1] was < 0.1 µM and the EC50 ([2]; Homo sapiens, MV4-11, 72 h) was ≥ 1 µM.
In the case of `CC(C)n1nccc1-c1cc(F)ccc1Oc1cncnc1N1CC2(CC(NCc3ccc(C#N)cc3)CO2)C1` (stereo not drawn) [Example 233, 4-(((2-(5-(4-fluoro-2-(1-isopropyl-1H-pyrazol-5-yl)phenoxy)pyrimidin-4-yl)-5-oxa-2-azaspiro[3.4]octan-7-yl)amino)methyl) benzonitrile], the IC50 [1] is reported as < 0.1 µM and the EC50 ([2]; Homo sapiens, MV4-11, 72 h) is reported as 0.1 to 1 µM.
With `CC(C)N(C(=O)c1cc(F)ccc1Oc1cncnc1N1CCC2(CCN(Cc3ccc4c(c3)[nH]c(=O)n4CCO)C2)C1)C(C)C` (single isomer, unassigned) [Example 3B, 5-fluoro-2-((4-(7-((1-(2-hydroxyethyl)-2-oxo-2,3-dihydro-1H-benzo[d]imidazol-5-yl)methyl)-2,7-diazaspiro[4.4]nonan-2-yl)pyrimidin-5-yl)oxy)-N,N-diisopropylbenzamide] the IC50 [1] was < 0.1 µM and the EC50 ([2]; 72 h) was < 0.1 µM.
With `CC(C)c1ccccc1-c1cc(F)c(F)cc1Oc1cncnc1N1CCC2(CCN(Cc3ccc4[nH]c(=O)[nH]c4c3)C2)C1` (stereo not drawn) [Example 47, 5-((7-(5-((4,5-difluoro-2′-isopropyl-[1,1′-biphenyl]-2-yl)oxy)pyrimidin-4-yl)-2,7-diazaspiro[4.4]nonan-2-yl)methyl)-1H-benzo[d]imidazol-2(3H)-one] the IC50 [1] was < 0.1 µM and the EC50 ([2]; Homo sapiens, MV4-11, 72 h) was 0.1 to 1 µM.
`CN(C(=O)c1cc(F)ccc1Oc1cncnc1N1CCC2(CCN(Cc3ccc4[nH]c(=O)[nH]c4c3)C2)C1)C1CC1` (stereo not drawn) [Example 165, N-cyclopropyl-5-fluoro-N-methyl-2-((4-(7-((2-oxo-2,3-dihydro-1H-benzo[d]imidazol-5-yl)methyl)-2,7-diazaspiro[4.4]nonan-2-yl)pyrimidin-5-yl)oxy)benzamide] was tested, and the IC50 [1] was < 0.1 µM and the EC50 ([2]; Homo sapiens, MV4-11, 72 h) was ≥ 1 µM.
For `O=c1[nH]c2ccc(CN3CCC4(CCN(c5ncncc5Oc5ccc(F)cc5OCC5CC5)C4)C3)cc2[nH]1` (stereo not drawn) [Example 54, 5-((7-(5-(2-(cyclopropylmethoxy)-4-fluorophenoxy)pyrimidin-4-yl)-2,7-diazaspiro[4.4]nonan-2-yl)methyl)-1,3-dihydro-2H-benzo[d]imidazol-2-one], the IC50 [1] was < 0.1 µM and the EC50 ([2]; Homo sapiens, MV4-11, 72 h) was 0.1 to 1 µM.
For `CC(C)N(C)Cc1cc(F)ccc1Oc1cncnc1N1CCC2(CCN(Cc3ccc4[nH]c(=O)[nH]c4c3)C2)C1` (stereo not drawn) [Example 135, 5-((7-(5-(4-fluoro-2-((isopropyl(methyl)amino)methyl)phenoxy)pyrimidin-4-yl)-2,7-diazaspiro[4.4]nonan-2-yl)methyl)-1,3-dihydro-2H-benzo[d]imidazol-2-one], the IC50 [1] was < 0.1 µM and the EC50 ([2]; Homo sapiens, MV4-11, 72 h) was ≥ 1 µM.
In the case of `CC(C)N(C(=O)c1cc(F)ccc1Oc1cncnc1N1CC2(CCN(CC3CCC(O)CC3)CC2)C1)C(C)C` (stereo not drawn) [Example 98, 5-fluoro-2-((4-(7-((4-hydroxycyclohexyl)methyl)-2,7-diazaspiro[3.5]nonan-2-yl)pyrimidin-5-yl)oxy)-N,N-diisopropylbenzamide], the IC50 [1] is reported as < 0.1 µM and the EC50 ([2]; Homo sapiens, MV4-11, 72 h) is reported as 0.1 to 1 µM.
`CC(C)N(C(=O)c1cc(F)ccc1Oc1cncnc1N1CCC2(CC(O)C(Cc3ccc4[nH]c(=O)[nH]c4c3)C2)C1)C(C)C` (single isomer, unassigned) [Example 23C, 5-fluoro-2-((4-(7-hydroxy-8-((2-oxo-2,3-dihydro-1H-benzo[d]imidazol-5-yl)methyl)-2-azaspiro[4.4]nonan-2-yl)pyrimidin-5-yl)oxy)-N,N-diisopropylbenzamide] was tested, and the IC50 [1] was < 0.1 µM and the EC50 ([2]; 72 h) was ≥ 1 µM.
With `Cc1c(C#N)cccc1-c1cc(F)ccc1Oc1cncnc1N1CCC2(CCN(Cc3ccc4[nH]c(=O)[nH]c4c3)C2)C1` (stereo not drawn) [Example 230, 5′-fluoro-2-methyl-2′-((4-(7-((2-oxo-2,3-dihydro-1H-benzo[d]imidazol-5-yl)methyl)-2,7-diazaspiro[4.4]nonan-2-yl)pyrimidin-5-yl)oxy)-[1,1′-biphenyl]-3-carbonitrile] the IC50 [1] was < 0.1 µM and the EC50 ([2]; Homo sapiens, MV4-11, 72 h) was 0.1 to 1 µM.
With `CCN(C(=O)c1cc(F)ccc1Oc1cncnc1N1CCC2(CCN(Cc3ccc4c(c3)[nH]c(=O)n4CCO)C2)C1)C(C)C` (single isomer, unassigned) [Example 4A, N-ethyl-5-fluoro-2-((4-(7-((1-(2-hydroxyethyl)-2-oxo-2,3-dihydro-1H-benzo[d]imidazol-5-yl)methyl)-2,7-diazaspiro[4.4]nonan-2-yl)pyrimidin-5-yl)oxy)-N-isopropylbenzamide] the IC50 [1] was < 0.1 µM and the EC50 ([2]; Homo sapiens, MV4-11, 72 h) was < 0.1 µM.
For `CCN(C(=O)C(C)C)c1cc(F)ccc1Oc1cncnc1N1CCC2(CCN(Cc3ccc4[nH]c(=O)[nH]c4c3)C2)C1` (stereo not drawn) [Example 186, N-ethyl-N-(5-fluoro-2-((4-(7-((2-oxo-2,3-dihydro-1H-benzo[d]imidazol-5-yl)methyl)-2,7-diazaspiro[4.4]nonan-2-yl)pyrimidin-5-yl)oxy)phenyl) isobutyramide], the IC50 [1] was < 0.1 µM and the EC50 ([2]; Homo sapiens, MV4-11, 72 h) was < 0.1 µM.
For `CC(C)C(=O)N(CC(N)=O)c1cc(F)ccc1Oc1cncnc1N1CCC2(CCN(Cc3ccc4[nH]c(=O)[nH]c4c3)C2)C1` (stereo not drawn) [Example 73, N-(2-amino-2-oxoethyl)-N-(5-fluoro-2-((4-(7-((2-oxo-2,3-dihydro-1H-benzo[d]imidazol-5-yl)methyl)-2,7-diazaspiro[4.4]nonan-2-yl)pyrimidin-5-yl)oxy)phenyl)isobutyramide], the IC50 [1] was < 0.1 µM and the EC50 ([2]; Homo sapiens, MV4-11, 72 h) was 0.1 to 1 µM.
With `CC(C)N(C(=O)c1cc(F)ccc1Oc1cncnc1N1CC2(CCN(CC3CCC(O)CC3)C2)C1)C(C)C` (stereo not drawn) [Example 99, 5-fluoro-2-((4-(6-((4-hydroxycyclohexyl)methyl)-2,6-diazaspiro[3.4]octan-2-yl)pyrimidin-5-yl)oxy)-N,N-diisopropylbenzamide] the IC50 [1] was < 0.1 µM and the EC50 ([2]; Homo sapiens, MV4-11, 72 h) was 0.1 to 1 µM.
For `CC(C)N(C)C(=O)c1cc(F)ccc1Oc1cncnc1N1CC2(CC(NC[C@H]3CC[C@H](NC(=O)OC(C)(C)C)CC3)C2)C1` [Example 83, tert-butyl ((1r,4r)-4-(((2-(5-(4-fluoro-2-(isopropyl(methyl)carbamoyl)phenoxy)pyrimidin-4-yl)-2-azaspiro[3.3]heptan-6-yl)amino)methyl)cyclohexyl)carbamate], the IC50 [1] was < 0.1 µM and the EC50 ([2]; Homo sapiens, MV4-11, 72 h) was 0.1 to 1 µM.
`N#Cc1ccc2c(CN3CCC4(CCN(c5ncncc5Oc5ccc(F)cc5OC5CCCC5)C4)C3)c[nH]c2c1` (stereo not drawn) [Example 192, 3-((7-(5-(2-(cyclopentyloxy)-4-fluorophenoxy)pyrimidin-4-yl)-2,7-diazaspiro[4.4]nonan-2-yl)methyl)-1H-indole-6-carbonitrile] was tested, and the IC50 [1] was < 0.1 µM and the EC50 ([2]; Homo sapiens, MV4-11, 72 h) was 0.1 to 1 µM.
For `CC(C)N(C)C(=O)c1cc(F)ccc1Oc1cncnc1N1CCC2(CCN(Cc3ccc4c(c3)NC(=O)C4(C)C)C2)C1` (stereo not drawn) [Example 202, 2-((4-(7-((3,3-dimethyl-2-oxoindolin-6-yl)methyl)-2,7-diazaspiro[4.4]nonan-2-yl)pyrimidin-5-yl)oxy)-5-fluoro-N-isopropyl-N-methylbenzamide], the IC50 [1] was < 0.1 µM and the EC50 ([2]; Homo sapiens, MV4-11, 72 h) was 0.1 to 1 µM.
`CN(C(=O)c1cc(F)ccc1Oc1cncnc1N1CCC2(CCN(Cc3ccc4[nH]c(=O)[nH]c4c3)C2)C1)c1ccccc1` (stereo not drawn) [Example 166, 5-fluoro-N-methyl-2-((4-(7-((2-oxo-2,3-dihydro-1H-benzo[d]imidazol-5-yl)methyl)-2,7-diazaspiro[4.4]nonan-2-yl)pyrimidin-5-yl)oxy)-N-phenylbenzamide] was tested, and the IC50 [1] was < 0.1 µM and the EC50 ([2]; Homo sapiens, MV4-11, 72 h) was 0.1 to 1 µM.
